The test system of test [1] is AncCDT-5. As to conditions: 50 mM Na2HPO4, 25 °C, 100 nM enzyme; prephenate dehydratase reaction.
In test [2] the test system is AncCDT-5. As to conditions: 50 mM Na2HPO4, 25 °C, 100 nM enzyme.

Where two headings read alike, the source gives them in different places.

For `O=C(O)C(=O)CC1(C(=O)O)C=CC(O)C=C1` (centres unmarked) [prephenate], the Michaelis-Menten constant (Km) with AncCDT-5 [1] was determined as 169 ± 22.9 µM; in the test with AncCDT-5 [2] it was 178 ± 27.1 µM.

The record behind these values is publication doi:10.1101/2022.09.13.507756v1 (biorxiv, 2022).
